This note sets out measurements from patent publication EP1452605A1, “Method for determining antiviral activity” (Universiteit Utrecht Holding B.V., priority 2003, dated 2004).

In general, IC50 refers to the concentration that inhibits the measured activity by half.

Holding throughout (type): cell-based
For assay [1], the system named is HIV-1Ba-L. The assay is described as follows: Entry assay: gag RNA in PBMC by real-time Taqman PCR. Conditions: gag RNA in PBMC 2h after infection, 10 or 30 µM APHS. As to the method: PBMC infection with HIV-1Ba-L or HIV-1HXB2 for real-time Taqman PCR The ability of HIV-1Ba-L to enter the cells in the presence of APHS was tested using DS as positive control (entry assay). The amount of HIV-1HXB2 reverse transcription products in the presence of APHS was also tested, using AZT as positive control (reverse transcription assay). Before infection, PHA-stimulated PBMC from the PBMC batch were pre-incubated with different concentrations of APHS, DS or AZT for 24 h. […]
Real-time Taqman PCR is based on cleavage of a probe, hybridized to the target sequence by 5'-3' nuclease activity of Taq DNA polymerase during amplification, as described previously ^24. […] Once separated from the quencher, the reporter dye emits its characteristic fluorescence, which can then be measured. The amount of fluorescence measured is proportional to the amount of PCR product.
HIV-1 gag cDNA and HIV-1 (-) strong stop and gag DNA were amplified and quantified by real-time Taqman PCR as described elsewhere ^25. […] To quantify the amount of gag RNA in the samples, a cDNA standard curve was prepared from five-fold dilutions of extracted RNA from an HXB2 viral batch, of which the RNA amount was previously determined.
Background: In qPCR the cycle at which signal appears reflects the starting amount.

Assay [2] relates to HIV-1Ba-L. The assay is described as follows: HIV-1 infection of PBMC, p24-core antigen ELISA. As for the experimental part:
To correct for the input virus, an extra control consisting of medium containing the same amount of input virus as added to the cells was included in the experiment. The amount of p24 in this control was subsequently subtracted from the p24 values of the samples in order to obtain the exact amount of p24 produced by the cells. p24-core antigen quantification by ELISA After 2 or 7 days incubation, samples of the supernatants were collected, inactivated by addition of Empigen (Calbiochem, La Jolla, CA, USA) and by heat inactivation at 56°C for 30 min. p24-core antigen concentration was determined by an enzyme linked immunoabsorbent assay (ELISA) (AMPAK™, DAKO, Cambridgeshire, UK) as described previously ^18,19. The optical density values were converted into p24 concentration (ng/ml) with the use of a calibration curve made by serial dilutions of recombinant p24 protein (NIBSC, UK) that was submitted to the same treatment as the samples.
(§1) To correct for the input virus, an extra control consisting of medium containing the same amount of input virus as added to the cells was included in the experiment. The amount of p24 in this control was subsequently subtracted from the p24 values of the samples in order to obtain the exact amount of p24 produced by the cells.
After 7 days incubation, samples of the supernatants were collected, inactivated by addition of Empigen (Calbiochem, La Jolla, CA, USA) and by heat inactivation at 56°C for 30 min. p24-core antigen concentration was determined by an ELISA (AMPAK™, DAKO, Cambridgeshire, UK) as described previously ^39,40. The optical density values were converted into p24 concentration (ng/ml) with the use of a calibration curve made by serial dilutions of recombinant p24 protein (NIBSC, UK) that was submitted to the same treatment as the samples.
as §1
After 7 days incubation, samples of the supernatants were collected, inactivated by addition of Empigen (Calbiochem, La Jolla, CA, USA) and by heat inactivation at 56°C for 30 min. p24-core antigen concentration was determined by an enzyme linked immunoabsorbent assay (ELISA) (AMPAK™, DAKO, Cambridgeshire, UK) as described previously 15,16. The optical density values were converted into p24 concentration (ng/ml) with the use of a calibration curve made by serial dilutions of recombinant p24 protein (NIBSC, UK) that was submitted to the same treatment as the samples.

The test system of another assay is HIV-1HXB2. The assay is described as follows: Reverse transcription assay in PBMC: (-) strong stop and gag DNA by real-time Taqman PCR. Conditions: 10h after infection. As for the experimental part: PBMC infection with HIV-1Ba-L or HIV-1HXB2 for real-time Taqman PCR The ability of HIV-1Ba-L to enter the cells in the presence of APHS was tested using DS as positive control (entry assay). The amount of HIV-1HXB2 reverse transcription products in the presence of APHS was also tested, using AZT as positive control (reverse transcription assay). Before infection, PHA-stimulated PBMC from the PBMC batch were pre-incubated with different concentrations of APHS, DS or AZT for 24 h. Afterwards, cells were washed and 1 × 10^6 PBMC were incubated for 40 min with HIV-1Ba-L or HIV-1HXB2 at an M.O.I. of 0.0025 and with appropriate concentrations of APHS, AZT, DS or medium in the presence of 1/20 concentrated M buffer (Roche) and 4U/ml DNase (Roche) to digest possible contaminating viral DNA associated with the virions. Afterwards PBMC were washed and resuspended in medium with or without compounds. Cells were treated with 1 mg/ml Pronase (Roche) to remove virus particles bound to the cells. […] At different time points, 1.0 × 10^6 cells were added to 900 µl Nuclisens lysis buffer (Organon Teknika, Boxtel, The Netherlands) containing 40 µl silica to bind total nucleic acids (Nuclisens isolation kit). For the entry assay, samples were collected 2h after the start of the infection and for the reverse transcription assays samples were collected 2, 7 and 10h after the start of the infection.
HIV RNA and DNA were extracted from samples of infected cells according to a method described before ^23. Briefly, after 10 min of mixing the silica and lysis buffer, tubes were shortly centrifuged at 13,000 rpm and supernatant was discarded. Free non-nucleic acid components were removed by washing the silica particles twice with Nuclisens washing buffer, twice with 70 % ethanol and once with acetone. The silica pellet was dried for 10 min at 56 °C. Total nucleic acids were eluted by resuspending the pellet in 100 µl nuclease-free water. After mixing the tubes for 10 min at 56 °C, tubes were shortly centrifuged and the supernatant was transferred to a new tube and stored at -20 °C.
Real-time Taqman PCR is based on cleavage of a probe, hybridized to the target sequence by 5'-3' nuclease activity of Taq DNA polymerase during amplification, as described previously ^24. Briefly, target sequence-specific forward and reverse primers prime the amplification reaction. The probe contains a reporter dye at the 5' end and a quencher dye at the 3' end. When both dyes are attached to the probe, reporter dye emission is quenched. The probe is displaced from the target during each polymeration cycle. Once separated from the quencher, the reporter dye emits its characteristic fluorescence, which can then be measured. The amount of fluorescence measured is proportional to the amount of PCR product.
HIV-1 gag cDNA and HIV-1 (-) strong stop and gag DNA were amplified and quantified by real-time Taqman PCR as described elsewhere ^25. Sets of primers/probes were designed according to a previous study by Zack and colleagues ^26. To quantify the amount of gag RNA in the samples, a cDNA standard curve was prepared from five-fold dilutions of extracted RNA from an HXB2 viral batch, of which the RNA amount was previously determined. To quantify (-) strong stop and gag DNA in the samples, a DNA standard curve was prepared from five-fold dilutions of DNA extracted from U1 cells, which contain two copies of the HIV-1HXB2 genome per cell. Albumin was also quantified and used for normalization of all samples.

As for `CCCCC#CCSc1ccccc1OC(C)=O` [APHS, o-(acetoxyphenyl)hept-2-ynyl sulfide], the “viral entry” value in the assay on HIV-1Ba-L [1] is “no inhibition of viral entry”. Besides, in the assay on HIV-1Ba-L [2] (Human immunodeficiency virus 1, 168 h, PBMC infected with HIV-1Ba-L, p24 antigen after 7 days, read-out: IC50), the IC50 was determined as 6 µM. In addition, the inhibition at 30 µM in the assay on HIV-1Ba-L [2] (Human immunodeficiency virus 1, 30 µM APHS, PBMC, read-out: inhibit HIV-1Ba-L replication) is 80%; in the assay with HIV-1HXB2 (Human immunodeficiency virus 1, 30 µM APHS, PBMC, read-out: inhibited gag production), 60%. Moreover, the “gag cDNA levels versus untreated PBMC” value with HIV-1HXB2 (10 µM APHS) was “no significant differences”. In the assay on HIV-1HXB2 (10 or 30 µM APHS, 5 or 1000 nM AZT), the “(-) strong stop DNA copy numbers versus untreated PBMC” value was “did not show a significant decrease”.
